The source of these data is patent publication US20220176084A1, “MEDICAL DEVICE WITH DRUG-ELUTING COATING ON MODIFIED DEVICE SURFACE” (Bard Peripheral Vascular, Inc., priority 2019, published 2022).

A word on the log P: it is a log measure of how a compound divides between an organic and an aqueous phase.

For series [1] the following is noted: octanol/water; cited from earlier work.
Series [2] is described as follows: stability under ethylene oxide sterilization, heating and aging; reaction with paclitaxel. The note with it: for reaction with paclitaxel: ethylene oxide sterilization, heating, aging.
A short description of series [3]: drug absorption by tissue after brief balloon deployment. The class given is in vivo. The note with it: formulated with paclitaxel; 0.2-2 minutes of deployment. An excerpt: Some of the surfactants described herein are very stable under heating. They survive an ethylene oxide sterilization process.
When the chemical compounds described herein are formulated with paclitaxel, a top coat layer may be advantageous in order to prevent premature drug loss during the device delivery process before deployment at the target site, since hydrophilic small molecules sometimes release drug too easily. The chemical compounds herein rapidly elute drug off the balloon during deployment at the target site.
Mixtures or combinations of a surfactant and a water-soluble small molecule confer the advantages of both additives. The water insoluble drug often has a poor compatibility with highly water-soluble chemical compounds, and the surfactant improves compatibility. […] The surfactant reduces drug loss during transit to a target site. The water-soluble chemical compound improves the release of drug off the balloon and absorption of the drug in the tissue.

For series [4] the following is noted: cited from earlier work.
The next series deals with albumin (Homo sapiens, UniProt P02768). Particulars: share of protein binding; cited from earlier work.
The test system of a further series is protein. The note with it: cited from earlier work.

Chain of albumin (P02768 25-609): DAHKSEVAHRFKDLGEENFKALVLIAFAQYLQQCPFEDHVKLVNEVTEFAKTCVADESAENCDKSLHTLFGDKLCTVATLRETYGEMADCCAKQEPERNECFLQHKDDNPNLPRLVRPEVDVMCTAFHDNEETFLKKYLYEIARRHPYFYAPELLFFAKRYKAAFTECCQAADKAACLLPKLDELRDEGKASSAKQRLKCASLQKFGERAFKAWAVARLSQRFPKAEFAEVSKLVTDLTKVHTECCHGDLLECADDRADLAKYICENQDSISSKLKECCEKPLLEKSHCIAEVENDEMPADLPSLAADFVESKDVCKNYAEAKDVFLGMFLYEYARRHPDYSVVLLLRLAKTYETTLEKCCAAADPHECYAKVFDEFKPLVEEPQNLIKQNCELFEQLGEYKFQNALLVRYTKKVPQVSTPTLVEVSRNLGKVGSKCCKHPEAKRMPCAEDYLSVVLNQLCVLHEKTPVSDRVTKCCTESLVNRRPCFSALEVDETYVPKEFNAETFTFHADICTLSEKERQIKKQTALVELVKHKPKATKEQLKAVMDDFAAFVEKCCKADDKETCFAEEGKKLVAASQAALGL

As for `COc1ccc(O)c(C(C)(C)C)c1` [Butylated hydroxyanisole (BHA), Butylated hydroxyanisole], in series [1], the “log P” value is recorded as 1.31.
For `O=C1O[C@H]([C@@H](O)CO)C(O)=C1O` [ascorbic acid], in series [2], the reaction with paclitaxel result is on record as “reacted with paclitaxel”.
Turning to `O=C(O)c1ccccc1` [benzoic acid], in series [2], the reaction with paclitaxel result was “reacted with paclitaxel”. For the same compound, the “stability under ethylene oxide sterilization, heating, and aging process” value in series [2] (experimentally) is “not stable”.
For `OCCNCCO` [diethanolamine], in series [2], the “survival of ethylene oxide sterilization process” value was “do not necessarily survive” and the reaction with paclitaxel entry was “reacted with paclitaxel”.
For the compound `O=C1O[C@H](CO)[C@@H](O)[C@H](O)[C@H]1O` [gluconolactone], the “drug absorption by tissue / drug levels in tissue” value in series [3] was “unexpectedly high”.
Take `O=C(O)/C=C\C(=O)O` [maleic acids]: the “water and ethanol solubility” value in series [4] (in words) is “very high”.
`NC(=O)c1cccnc1` [niacinamide]: the “water and ethanol solubility” value in series [4] (in words) was “very high”.
Take `CC(=O)O[C@H]1C(=O)[C@@]2(C)[C@H]([C@H](OC(=O)c3ccccc3)[C@]3(O)C[C@H](OC(=O)[C@H](O)[C@@H](NC(=O)c4ccccc4)c4ccccc4)C(C)=C1C3(C)C)[C@]1(OC(C)=O)CO[C@@H]1C[C@@H]2O` [paclitaxel, reference compound]: the “increase of solubility in PBS with the addition of BSA” value in series [4] (PBS, BSA added) is “over 20 fold”.
Consider `CO[C@H]1C[C@@H]2CC[C@@H](C)[C@@](O)(O2)C(=O)C(=O)N2CCCC[C@H]2C(=O)O[C@H]([C@H](C)C[C@@H]2CC[C@@H](O)[C@H](OC)C2)CC(=O)[C@H](C)/C=C(\C)[C@@H](O)[C@@H](OC)C(=O)[C@H](C)C[C@H](C)/C=C/C=C/C=C/1C` [rapamycin], for which the “protein bound primarily to albumin” value at albumin was 97%. Besides, the protein bound in the series with protein was 92%.
As to `O=C1O[C@H](CO)[C@@H](O)[C@H]1O` [ribonic acid lactone], the “drug absorption by tissue / drug levels in tissue” value in series [3] was “unexpectedly high”.
`Cc1ncc(C[n+]2csc(CCO)c2C)c(N)n1` [thiamine]: the “water and ethanol solubility” value in series [4] (in words) was “very high”.
With PEG-20 sorbitan monolaurate [Tween 20], the “log P” value in series [1] is “about 3.0”.
For the compound Sudan Red, the “solubility in aqueous solvent” value in series [4] (in words) is given as “insoluble”.
